What all share (assay): relative viability (nuclei count vs DMSO), 5 days (fraction); higher = more cells survive
Compound in the experiment “Vorinostat + Trametinib”: O=C(CCCCCCC(=O)Nc1ccccc1)NO [Vorinostat] + CC(=O)Nc1cccc(-n2c(=O)n(C3CC3)c(=O)c3c(Nc4ccc(I)cc4F)n(C)c(=O)c(C)c32)c1 [Trametinib] (partner 0.02 µM)
A digest of the protocol: (§1)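 Dosing by pin tool came one day after lung cancer cell lines were seeded in 1536-well plates, using either one drug or a fixed anchor-drug dose plus five library-drug doses (not always all listed) in √10 steps. After 5 days, nuclei were counted on 4× images. Relative viability is treated-well nuclei count divided by vehicle-well nuclei count, and values are medians of duplicate plates.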

Compound in the experiment “Vorinostat + Bortezomib”: O=C(CCCCCCC(=O)Nc1ccccc1)NO [Vorinostat] + CC(C)C[C@H](NC(=O)[C@H](Cc1ccccc1)NC(=O)c1cnccn1)B(O)O [Bortezomib] (partner 0.002 µM)
A digest of the protocol: as §1

Compound in the experiment “Vorinostat + Foretinib”: O=C(CCCCCCC(=O)Nc1ccccc1)NO [Vorinostat] + COc1cc2c(Oc3ccc(NC(=O)C4(C(=O)Nc5ccc(F)cc5)CC4)cc3F)ccnc2cc1OCCCN1CCOCC1 [Foretinib] (partner 0.25 µM)
Summed up:
as §1

Compound in the experiment “Vorinostat + Tozasertib”: O=C(CCCCCCC(=O)Nc1ccccc1)NO [Vorinostat] + Cc1cc(Nc2cc(N3CCN(C)CC3)nc(Sc3ccc(NC(=O)C4CC4)cc3)n2)n[nH]1 [Tozasertib] (partner 0.1 µM)
A digest of the protocol: as §1

Compound in the experiment “Vorinostat + Pemetrexed”: O=C(CCCCCCC(=O)Nc1ccccc1)NO [Vorinostat] + Nc1nc2[nH]cc(CCc3ccc(C(=O)N[C@@H](CCC(=O)O)C(=O)O)cc3)c2c(=O)[nH]1 [Pemetrexed] (partner 0.2 µM)
A digest of the protocol: as §1

With H3255, the relative viability with Vorinostat + Trametinib (first compound 0.253 µM) came out at 0.819; in the experiment with Vorinostat + Trametinib (first compound 0.8 µM), 0.709; in the experiment with Vorinostat + Trametinib (first compound 2.53 µM), 0.576; with Vorinostat + Trametinib (first compound 8 µM), 0.227; with Vorinostat + Bortezomib (first compound 0.253 µM), 0.778; with Vorinostat + Bortezomib (first compound 0.8 µM) it was 0.622. The relative viability is 0.456 with Vorinostat + Bortezomib (first compound 2.53 µM); 0.154 with Vorinostat + Bortezomib (first compound 8 µM); 0.859 with Vorinostat + Foretinib (first compound 0.253 µM); 0.868 in the experiment with Vorinostat + Foretinib (first compound 0.8 µM); 0.812 with Vorinostat + Foretinib (first compound 2.53 µM); 0.223 with Vorinostat + Foretinib (first compound 8 µM). The relative viability with Vorinostat + Tozasertib (first compound 0.253 µM) stood at 0.705; with Vorinostat + Tozasertib (first compound 0.8 µM) it was 0.525; in the experiment with Vorinostat + Tozasertib (first compound 2.53 µM) it was 0.277; in the experiment with Vorinostat + Tozasertib (first compound 8 µM) it was 0.219; with Vorinostat + Pemetrexed (first compound 0.253 µM), 0.656; with Vorinostat + Pemetrexed (first compound 0.8 µM), 0.573. Moreover, the relative viability with Vorinostat + Pemetrexed (first compound 2.53 µM) came out at 0.56; in the experiment with Vorinostat + Pemetrexed (first compound 8 µM) it was 0.289.
In the case of NCI-H2228, the relative viability was determined as 0.67 with Vorinostat + Trametinib (first compound 0.253 µM); 0.464 in the experiment with Vorinostat + Trametinib (first compound 0.8 µM); 0.219 with Vorinostat + Trametinib (first compound 2.53 µM); 0.101 in the experiment with Vorinostat + Trametinib (first compound 8 µM); 0.979 with Vorinostat + Bortezomib (first compound 0.253 µM); 0.389 with Vorinostat + Bortezomib (first compound 0.8 µM). In addition, the relative viability was 0.188 in the experiment with Vorinostat + Bortezomib (first compound 2.53 µM); 0.097 in the experiment with Vorinostat + Bortezomib (first compound 8 µM); 0.917 with Vorinostat + Foretinib (first compound 0.253 µM); 0.537 with Vorinostat + Foretinib (first compound 0.8 µM); 0.311 with Vorinostat + Foretinib (first compound 2.53 µM); 0.0906 with Vorinostat + Foretinib (first compound 8 µM). Also, the relative viability with Vorinostat + Tozasertib (first compound 0.253 µM) turned out to be 0.199; with Vorinostat + Tozasertib (first compound 0.8 µM) it was 0.103; in the experiment with Vorinostat + Tozasertib (first compound 2.53 µM), 0.0837; with Vorinostat + Tozasertib (first compound 8 µM), 0.0871; with Vorinostat + Pemetrexed (first compound 0.253 µM) it was 0.336; with Vorinostat + Pemetrexed (first compound 0.8 µM), 0.297. For the same cell line, the relative viability with Vorinostat + Pemetrexed (first compound 2.53 µM) was found to be 0.252; in the experiment with Vorinostat + Pemetrexed (first compound 8 µM), 0.132.
For UMC-11, the relative viability with Vorinostat + Trametinib (first compound 0.253 µM) is 0.845; with Vorinostat + Trametinib (first compound 0.8 µM), 0.245; with Vorinostat + Trametinib (first compound 2.53 µM), 0.0839; with Vorinostat + Trametinib (first compound 8 µM), 0.0678; with Vorinostat + Bortezomib (first compound 0.253 µM) it was 0.672; with Vorinostat + Bortezomib (first compound 0.8 µM) it was 0.56. For the same cell line, the relative viability in the experiment with Vorinostat + Bortezomib (first compound 2.53 µM) worked out at 0.0652; with Vorinostat + Bortezomib (first compound 8 µM), 0.0503; with Vorinostat + Foretinib (first compound 0.253 µM) it was 1.12; in the experiment with Vorinostat + Foretinib (first compound 0.8 µM), 0.465; in the experiment with Vorinostat + Foretinib (first compound 2.53 µM), 0.121; with Vorinostat + Foretinib (first compound 8 µM), 0.103. Besides, the relative viability is 0.195 with Vorinostat + Tozasertib (first compound 0.253 µM); 0.164 with Vorinostat + Tozasertib (first compound 0.8 µM); 0.147 with Vorinostat + Tozasertib (first compound 2.53 µM); 0.129 with Vorinostat + Tozasertib (first compound 8 µM); 0.756 with Vorinostat + Pemetrexed (first compound 0.253 µM); 0.453 with Vorinostat + Pemetrexed (first compound 0.8 µM). Also, the relative viability with Vorinostat + Pemetrexed (first compound 2.53 µM) worked out at 0.119; with Vorinostat + Pemetrexed (first compound 8 µM), 0.0862.
NCI-H1734: the relative viability with Vorinostat + Trametinib (first compound 0.253 µM) turned out to be 0.721; with Vorinostat + Trametinib (first compound 0.8 µM), 0.713; with Vorinostat + Trametinib (first compound 2.53 µM), 0.5; in the experiment with Vorinostat + Trametinib (first compound 8 µM) it was 0.117; with Vorinostat + Bortezomib (first compound 0.253 µM), 1.14; with Vorinostat + Bortezomib (first compound 0.8 µM), 0.96. Also, the relative viability amounted to 0.417 with Vorinostat + Bortezomib (first compound 2.53 µM); 0.109 in the experiment with Vorinostat + Bortezomib (first compound 8 µM); 0.944 with Vorinostat + Foretinib (first compound 0.253 µM); 0.917 with Vorinostat + Foretinib (first compound 0.8 µM); 0.526 with Vorinostat + Foretinib (first compound 2.53 µM); 0.176 in the experiment with Vorinostat + Foretinib (first compound 8 µM). The relative viability with Vorinostat + Tozasertib (first compound 0.253 µM) is 0.258; with Vorinostat + Tozasertib (first compound 0.8 µM), 0.229; in the experiment with Vorinostat + Tozasertib (first compound 2.53 µM), 0.162; with Vorinostat + Tozasertib (first compound 8 µM), 0.133; in the experiment with Vorinostat + Pemetrexed (first compound 0.253 µM), 0.44; in the experiment with Vorinostat + Pemetrexed (first compound 0.8 µM), 0.413. Moreover, the relative viability with Vorinostat + Pemetrexed (first compound 2.53 µM) was found to be 0.408; in the experiment with Vorinostat + Pemetrexed (first compound 8 µM), 0.131.
Consider NCI-H1355, for which the relative viability with Vorinostat + Trametinib (first compound 0.253 µM) was determined as 0.484; with Vorinostat + Trametinib (first compound 0.8 µM) it was 0.331; with Vorinostat + Trametinib (first compound 2.53 µM) it was 0.231; in the experiment with Vorinostat + Trametinib (first compound 8 µM) it was 0.131; with Vorinostat + Bortezomib (first compound 0.253 µM), 1.3; with Vorinostat + Bortezomib (first compound 0.8 µM), 0.978. The relative viability in the experiment with Vorinostat + Bortezomib (first compound 2.53 µM) came to 0.863; with Vorinostat + Bortezomib (first compound 8 µM), 0.131; with Vorinostat + Foretinib (first compound 0.253 µM) it was 1.05; with Vorinostat + Foretinib (first compound 0.8 µM), 1.01; with Vorinostat + Foretinib (first compound 2.53 µM), 0.562; with Vorinostat + Foretinib (first compound 8 µM), 0.156. The relative viability with Vorinostat + Tozasertib (first compound 0.253 µM) worked out at 0.529; with Vorinostat + Tozasertib (first compound 0.8 µM), 0.315; with Vorinostat + Tozasertib (first compound 2.53 µM) it was 0.188; with Vorinostat + Tozasertib (first compound 8 µM), 0.129; in the experiment with Vorinostat + Pemetrexed (first compound 0.253 µM) it was 1.09; in the experiment with Vorinostat + Pemetrexed (first compound 0.8 µM), 1.01. In addition, the relative viability in the experiment with Vorinostat + Pemetrexed (first compound 2.53 µM) is 0.536; with Vorinostat + Pemetrexed (first compound 8 µM), 0.246.
For NCI-H661, the relative viability with Vorinostat + Trametinib (first compound 0.253 µM) was 0.767; in the experiment with Vorinostat + Trametinib (first compound 0.8 µM) it was 0.614; with Vorinostat + Trametinib (first compound 2.53 µM), 0.303; with Vorinostat + Trametinib (first compound 8 µM) it was 0.301; with Vorinostat + Bortezomib (first compound 0.253 µM) it was 0.839; in the experiment with Vorinostat + Bortezomib (first compound 0.8 µM) it was 0.933. Also, the relative viability with Vorinostat + Bortezomib (first compound 2.53 µM) turned out to be 0.439; with Vorinostat + Bortezomib (first compound 8 µM), 0.185; with Vorinostat + Foretinib (first compound 0.253 µM), 1.11; with Vorinostat + Foretinib (first compound 0.8 µM), 0.843; with Vorinostat + Foretinib (first compound 2.53 µM), 0.447; with Vorinostat + Foretinib (first compound 8 µM) it was 0.298. Also, the relative viability is 0.342 with Vorinostat + Tozasertib (first compound 0.253 µM); 0.262 with Vorinostat + Tozasertib (first compound 0.8 µM); 0.249 in the experiment with Vorinostat + Tozasertib (first compound 2.53 µM); 0.269 with Vorinostat + Tozasertib (first compound 8 µM); 0.926 with Vorinostat + Pemetrexed (first compound 0.253 µM); 0.78 with Vorinostat + Pemetrexed (first compound 0.8 µM). Also, the figures for the relative viability with Vorinostat + Pemetrexed (first compound 2.53 µM) and in the experiment with Vorinostat + Pemetrexed (first compound 8 µM) were 0.455 and 0.355, respectively.
In the case of EPLC-272H, the relative viability with Vorinostat + Trametinib (first compound 0.253 µM) stood at 0.296; with Vorinostat + Trametinib (first compound 0.8 µM) it was 0.269; with Vorinostat + Trametinib (first compound 2.53 µM), 0.168; with Vorinostat + Trametinib (first compound 8 µM), 0.11; with Vorinostat + Bortezomib (first compound 0.253 µM), 0.742; with Vorinostat + Bortezomib (first compound 0.8 µM), 0.744. Moreover, the relative viability in the experiment with Vorinostat + Bortezomib (first compound 2.53 µM) turned out to be 0.275; in the experiment with Vorinostat + Bortezomib (first compound 8 µM), 0.12; with Vorinostat + Foretinib (first compound 0.253 µM) it was 0.581; with Vorinostat + Foretinib (first compound 0.8 µM), 0.512; with Vorinostat + Foretinib (first compound 2.53 µM) it was 0.0722; in the experiment with Vorinostat + Foretinib (first compound 8 µM), 0.133. The relative viability with Vorinostat + Tozasertib (first compound 0.253 µM) worked out at 0.289; in the experiment with Vorinostat + Tozasertib (first compound 0.8 µM), 0.249; with Vorinostat + Tozasertib (first compound 2.53 µM), 0.189; with Vorinostat + Tozasertib (first compound 8 µM), 0.149; in the experiment with Vorinostat + Pemetrexed (first compound 0.253 µM), 0.367; with Vorinostat + Pemetrexed (first compound 0.8 µM), 0.381. The relative viability with Vorinostat + Pemetrexed (first compound 2.53 µM) turned out to be 0.212; in the experiment with Vorinostat + Pemetrexed (first compound 8 µM), 0.159.

Source of the values: the supplement of paper PMC10307832.
